Results as given in patent publication US11459323B2, “Monocyclic β-lactam compound for treating bacterial infection” (MEDSHINE DISCOVERY INC., priority 2018, dated 2022).
Values after ≈ are worked out from the molar mass of the structure shown.

Key:
A. baumannii ATCC 17978 = experiment: MIC by micro-liquid dilution method (CLSI); type: cell-based; conditions: Acinetobacter baumannii; A. baumannii ATCC17978; read-out: MIC
[1] = system: E. coli NCTC 13476 (IMP-1 type); experiment: MIC by micro-liquid dilution method (CLSI); type: cell-based; conditions: Escherichia coli; E. coli NCTC13476; read-out: MIC
Description: (§1) Three strains of Klebsiella pneumonia, K. pneumoniae ATCC BAA-205 (TEM-1/SHV-1/SHV-12), K. pneumoniae ATCC BAA-1705 (KPC-2), K. pneumoniae ATCC BAA-2470 (NDM-1); three strains of Pseudomonas aeruginosa, P. aeruginosa NCTC13437 (VIM-10; VEB-1), P. aeruginosa PA 14 and P. aeruginosa ATCC 35151; four strains of Escherichia coli, E. coli NCTC 13476 (IMP-1 type), E. coli ATCC BAA-2523 (OXA-48), E. coli MG1655Δtol C, E. coli ATCC 25922; one strain of Acinetobacter baumannii, A. baumannii ATCC 17978 and one strain of Staphylococcus aureus, S. aureus NRS384 were used to determine the minimum inhibitory concentration (MIC) of the compounds by micro-liquid dilution method according to the Institute of Clinical and Laboratory Standard (CLSI) requirements.

[2] = system: E. coli ATCC BAA-2523 (OXA-48); experiment: MIC by micro-liquid dilution method (CLSI); type: cell-based; conditions: Escherichia coli, ATCCBAA2523; E. coli ATCCBAA-2523; read-out: MIC
Description: as §1

P. aeruginosa PA 14 = experiment: MIC by micro-liquid dilution method (CLSI); type: cell-based; conditions: Pseudomonas aeruginosa, PA14; P. aeruginosa PA 14; read-out: MIC
Description: as §1

E. coli MG1655Δtol C = experiment: MIC by micro-liquid dilution method (CLSI); type: cell-based; conditions: Escherichia coli
Description: as §1

[3] = system: Pseudomonas aeruginosa PA14; experiment: Lungs of immunosuppressed mice infected with Pseudomonas aeruginosa (1), lung bacterial load; type: in vivo; conditions: 24 hours after infection, total dosage 400 mg/kg, day, ip at 2 h, 4 h, 6 h, 8 h
Description: Pseudomonas aeruginosa PA14. 64 mice were intraperitoneally injected with 150 mg/kg cyclophosphamide on the first day and the fourth day to give immunosuppressed mice. […] [table] The mice were injected with 50 μL of bacterial solution (2×10^3 CFU) through the airway. 2 hours after the infection, 4 mice in the model group was sacrificed by removing cervical vertebra. Two hours after infection, the drugs were administered by groups, and the mice were administered intraperitoneally once at 2 hours, 4 hours, 6 hours, and 8 hours, a total of 4 times. Mice of each group were sacrificed by removing cervical vertebra 24 hours after infection, lung and kidney tissues were taken aseptically and put into sterilized tissue homogenate tubes, weighed, and an appropriate amount of normal saline (NS) was added, the mixture was homogenized by a homogenizer for 1 min, the lung tissues of the model group were diluted 10^4, 10^5, 10^6 times, the lung tissues of each administration group were diluted 10, 100 times, the kidney tissues of the model group were diluted 10^2, […], 10^4 times, and the lung tissues of each administration group were diluted 10 times, the obtained mixtures were coated on TSA plates using spiral coater, then incubated at 37° C. overnight, and the CFU was counted with a colony counter. Graphpad Prism mapping software was used to make scatter plots of lung tissue CFU. SPSS19.0 software was used to count CFU and average body weight, and analysis of variance was used to analyze differences between groups.

[4] = Body weight of mice in Pseudomonas aeruginosa lung infection experiment (1); type: in vivo, CD-1 (ICR) mice; conditions: Aztreonam group (400 mg/kg.day, ip)
Description: CD-1 (ICR) mice, provided by Beijing Charles River Laboratory Animal Technology Co., Ltd., weighing 23-27 g, 7 weeks old, female, a total of 64 mice.
The mice were weighed every day after the start of the experiment and the weight changes were recorded.
Graphpad Prism mapping software was used to make scatter plots of lung tissue CFU. SPSS19.0 software was used to count CFU and average body weight, and analysis of variance was used to analyze differences between groups.

[5] = system: K. pneumoniae ATCC BAA-2470 (NDM-1); experiment: MIC by micro-liquid dilution method (CLSI); type: cell-based, Klebsiella pneumonia; conditions: Klebsiella pneumoniae, ATCCBAA2470
[6] = system: K. pneumoniae ATCC BAA-1705 (KPC-2); experiment: MIC by micro-liquid dilution method (CLSI); type: cell-based, Klebsiella pneumonia; conditions: Klebsiella pneumoniae, ATCCBAA1705
[7] = system: K. pneumoniae ATCC BAA-205 (TEM-1/SHV-1/SHV-12); experiment: MIC by micro-liquid dilution method (CLSI); type: cell-based, Klebsiella pneumonia; conditions: Klebsiella pneumoniae, ATCCBAA205

Q: What does the source list for `C[C@H]1[C@H](NC(=O)/C(=N\OC(C)(C)C(=O)O)c2csc(N)n2)C(=O)N1S(=O)(=O)O` [Aztreonam, reference compound]?
A: MIC (A. baumannii ATCC 17978): 32 µg/mL (≈ 73.5 µM); MIC [1]: 0.25 µg/mL (≈ 0.574 µM); MIC [2]: 16 µg/mL (≈ 36.7 µM); MIC (P. aeruginosa PA 14): 8 µg/mL (≈ 18.4 µM); MIC (E. coli MG1655Δtol C): ≤ 0.125 µg/mL; LOG10-of bacterial load [3]: 1.62 ± 2.22; Body weight on the fifth day [4]: 28.02 ± 1.08 g; Body weight on the first day [4]: 27.16 ± 1.74 g; Body weight on the fourth day [4]: 27.80 ± 2.37 g

Q: Which MIC [5] does the source give for `C[C@@H](O)[C@H]1C(=O)N2C(C(=O)O)=C(S[C@@H]3CN[C@H](C(=O)N(C)C)C3)[C@H](C)[C@H]12` [Meropenem, reference compound] here?
A: > 128 µg/mL

Q: And the MIC [6]?
A: 128 µg/mL (≈ 334 µM)

Q: What about the MIC [1] of the same compound?
A: 32 µg/mL (≈ 83.4 µM)

Q: What about the MIC [2] of the same compound?
A: 2 µg/mL (≈ 5.22 µM)

Q: And the MIC (P. aeruginosa PA 14)?
A: 0.5 µg/mL (≈ 1.3 µM)

Q: What about the MIC (E. coli MG1655Δtol C) of the same compound?
A: ≤ 0.125 µg/mL

Q: What about the MIC [7] of the same compound?
A: ≤ 0.125 µg/mL
